Measurements reported in patent US20260256792A1, “TREATMENT OF CHRONIC SPONTANEOUS URTICARIA BY ADMINISTERING (R)-2-[3-[4-AMINO-3-(2-FLUORO-4-PHENOXY-PHENYL)PYRAZOLO[3,4-D]PYRIMIDIN-1-YL]PIPERIDINE-1-CARBONYL]-4-METHYL-4-[4-(OXETAN-3-YL)PIPERAZIN-1-YL]PENT-2-ENENITRILE” (priority 2023, published 2026).

System: angioedema in CSU patients
Assay: Phase 2 CSU study: angioedema activity score over 7 days (AAS7)
Type: in vivo, human
Parameters: AAS7, Median / AAS7 Change from baseline, Median: scale not given here
Description: The study comprises a 12 week, randomized, double-blind, placebo-controlled, multi-center, dose-ranging efficacy and safety phase, followed by a 40 week open label extension (OLE) phase (see FIG. 1). The study consists of three phases and an optional OLE phase. […] The weekly angioedema activity score (AAS7) was proposed as a tertiary endpoint. […] Patients were to complete the AAS using the e-diary. The e-diary was to be used once daily on the same time of each day recording of participant's answers to the angioedema activity score over 7 days (AAS7) questionnaire.

[1] = Patients with Prior Omalizumab Use, 400 mg TID, Week 1
[2] = Patients with Prior Omalizumab Use, 400 mg TID, Week 2
[3] = Patients with Prior Omalizumab Use, 400 mg TID, Week 3
[4] = Patients with Prior Omalizumab Use, 400 mg TID, Week 4
[5] = Patients with Prior Omalizumab Use, 400 mg TID, Week 5
[6] = Patients with Prior Omalizumab Use, 400 mg TID, Week 6
[7] = Patients with Prior Omalizumab Use, 400 mg TID, Week 7
[8] = Patients with Prior Omalizumab Use, 400 mg TID, Week 8
[9] = Week 8, 400 mg BID, Incomplete Responders with angioedema at baseline, double-blind period
[10] = Week 8, 400 mg QPM, Incomplete Responders with angioedema at baseline, double-blind period
[11] = Week 8, 400 mg TID, Incomplete Responders with angioedema at baseline, double-blind period
[12] = Week 9, 400 mg BID, Incomplete Responders with angioedema at baseline, double-blind period
[13] = Week 9, 400 mg QPM, Incomplete Responders with angioedema at baseline, double-blind period
[14] = Week 9, 400 mg TID, Incomplete Responders with angioedema at baseline, double-blind period
[15] = Week 10, 400 mg BID, Incomplete Responders with angioedema at baseline, double-blind period
[16] = Week 10, 400 mg QPM, Incomplete Responders with angioedema at baseline, double-blind period
[17] = Week 10, 400 mg TID, Incomplete Responders with angioedema at baseline, double-blind period
[18] = Week 11, 400 mg BID, Incomplete Responders with angioedema at baseline, double-blind period
[19] = Week 11, 400 mg QPM, Incomplete Responders with angioedema at baseline, double-blind period
[20] = Week 11, 400 mg TID, Incomplete Responders with angioedema at baseline, double-blind period
[21] = Week 12, 400 mg BID, Incomplete Responders with angioedema at baseline, double-blind period
[22] = Week 12, 400 mg QPM, Incomplete Responders with angioedema at baseline, double-blind period
[23] = Week 12, 400 mg TID, Incomplete Responders with angioedema at baseline, double-blind period

## CC(C)(C=C(C#N)C(=O)N1CCC[C@@H](n2nc(-c3ccc(Oc4ccccc4)cc3F)c3c(N)ncnc32)C1)N1CCN(C2COC2)CC1 [rilzabrutinib, (R)-2-[3-[4-amino-3-(2-fluoro-4-phenoxy-phenyl)pyrazolo[3,4-d]pyrimidin-1-yl]piperidine-1-carbonyl]-4-methyl-4-[4-(oxetan-3-yl)piperazin-1-yl]pent-2-enenitrile]
Patients with Prior Omalizumab Use, 400 mg QPM, Week 8
  AAS7 Change from baseline, Median: −50.00
[1]
  AAS7, Mean (SD): 6.33 (7.77)
  AAS7, Median: 4.00
  AAS7 Change from baseline, Median: −25.83
  AAS7 Percent change from baseline, Mean (SD): −79.91 (18.61) %
  AAS7 Percent change from baseline, Median: −76.47%
[2]
  AAS7, Mean (SD): 4.00 (6.93)
  AAS7, Median: 0.00
  AAS7 Change from baseline, Mean (SD): −27.28 (19.44)
  AAS7 Change from baseline, Median: −36.00
  AAS7 Percent change from baseline, Mean (SD): −76.47 (40.75) %
  AAS7 Percent change from baseline, Median: −100.00%
[3]
  AAS7, Mean (SD): 7.00 (7.00)
  AAS7, Median: 7.00
  AAS7 Change from baseline, Mean (SD): −24.28 (18.46)
  AAS7 Change from baseline, Median: −33.83
  AAS7 Percent change from baseline, Mean (SD): −66.83 (43.45) %
  AAS7 Percent change from baseline, Median: −82.86%
[4]
  AAS7, Mean (SD): 7.11 (6.30)
  AAS7, Median: 9.33
  AAS7 Change from baseline, Mean (SD): −24.17 (16.75)
  AAS7 Change from baseline, Median: −31.50
  AAS7 Percent change from baseline, Mean (SD): −68.85 (36.02) %
  AAS7 Percent change from baseline, Median: −77.14%
[5]
  AAS7, Median: 19.83
  AAS7 Change from baseline, Mean (SD): −18.00 (19.67)
  AAS7 Change from baseline, Median: −21.00
  AAS7 Percent change from baseline, Mean (SD): −44.59 (59.12) %
  AAS7 Percent change from baseline, Median: −51.43%
[6]
  AAS7, Mean (SD): 7.00 (8.19)
  AAS7, Median: 5.00
  AAS7 Change from baseline, Mean (SD): −24.28 (20.16)
  AAS7 Change from baseline, Median: −35.83
  AAS7 Percent change from baseline, Mean (SD): −64.55 (51.17) %
  AAS7 Percent change from baseline, Median: −87.76%
[7]
  AAS7, Mean (SD): 9.72 (16.84)
  AAS7, Median: 0.00
  AAS7 Change from baseline, Mean (SD): −21.56 (12.79)
  AAS7 Change from baseline, Median: −17.00
  AAS7 Percent change from baseline, Mean (SD): −76.19 (41.24) %
  AAS7 Percent change from baseline, Median: −100.00%
[8]
  AAS7, Mean (SD): 4.67 (7.23)
  AAS7, Median: 1.00
  AAS7 Change from baseline, Mean (SD): −26.61 (19.68)
  AAS7 Change from baseline, Median: −36.00
[9]
  AAS7 Percent change from baseline, Mean (SD): −100.00 (0.00)
  AAS7 Percent change from baseline, Median: −100.00
[10]
  AAS7 Percent change from baseline, Mean (SD): −73.53 (NC)
  AAS7 Percent change from baseline, Median: −73.53
[11]
  AAS7 Percent change from baseline, Mean (SD): −73.69 (43.46)
  AAS7 Percent change from baseline, Median: −97.55
[12]
  AAS7, Mean (SD): 0.00 (0.00)
  AAS7, Median: 0.00
  AAS7 Change from baseline, Mean (SD): −39.50 (3.54)
  AAS7 Change from baseline, Median: −39.50
  AAS7 Percent change from baseline, Mean (SD): −100.00 (0.00)
  AAS7 Percent change from baseline, Median: −100.00
[13]
  AAS7, Mean (SD): 10.00 (NC)
  AAS7 Change from baseline, Mean (SD): −58.00 (NC)
  AAS7 Change from baseline, Median: −58.00
  AAS7 Percent change from baseline, Mean (SD): −85.29 (NC)
  AAS7 Percent change from baseline, Median: −85.29
[14]
  AAS7, Mean (SD): 4.39 (6.62)
  AAS7, Median: 1.17
  AAS7 Change from baseline, Mean (SD): −26.89 (19.04)
  AAS7 Change from baseline, Median: −36.00
  AAS7 Percent change from baseline, Mean (SD): −75.52 (39.95)
  AAS7 Percent change from baseline, Median: −97.14
[15]
  AAS7, Mean (SD): 0.00 (0.00)
  AAS7, Median: 0.00
  AAS7 Change from baseline, Mean (SD): −39.50 (3.54)
  AAS7 Change from baseline, Median: −39.50
  AAS7 Percent change from baseline, Mean (SD): −100.00 (0.00)
  AAS7 Percent change from baseline, Median: −100.00
[16]
  AAS7, Mean (SD): 0.00 (NC)
  AAS7, Median: 0.00
  AAS7 Change from baseline, Mean (SD): −68.00 (NC)
  AAS7 Change from baseline, Median: −68.00
  AAS7 Percent change from baseline, Mean (SD): −100.00 (NC)
  AAS7 Percent change from baseline, Median: −100.00
[17]
  AAS7, Mean (SD): 9.00 (10.15)
  AAS7, Median: 7.00
  AAS7 Change from baseline, Mean (SD): −22.28 (21.92)
  AAS7 Change from baseline, Median: −33.83
  AAS7 Percent change from baseline, Mean (SD): −55.07 (63.56)
  AAS7 Percent change from baseline, Median: −82.86
[18]
  AAS7, Mean (SD): 0.00 (0.00)
  AAS7, Median: 0.00
  AAS7 Change from baseline, Mean (SD): −39.50 (3.54)
  AAS7 Change from baseline, Median: −39.50
  AAS7 Percent change from baseline, Mean (SD): −100.00 (0.00)
  AAS7 Percent change from baseline, Median: −100.00
[19]
  AAS7, Mean (SD): 0.00 (NC)
  AAS7, Median: 0.00
  AAS7 Change from baseline, Mean (SD): −68.00 (NC)
  AAS7 Change from baseline, Median: −68.00
  AAS7 Percent change from baseline, Mean (SD): −100.00 (NC)
  AAS7 Percent change from baseline, Median: −100.00
[20]
  AAS7, Median: 0.00
  AAS7 Change from baseline, Mean (SD): −24.61 (24.03)
  AAS7 Change from baseline, Median: −36.00
  AAS7 Percent change from baseline, Mean (SD): −60.78 (67.92)
  AAS7 Percent change from baseline, Median: −100.00
[21]
  AAS7, Mean (SD): 0.00 (0.00)
  AAS7, Median: 0.00
  AAS7 Change from baseline, Mean (SD): −39.50 (3.54)
  AAS7 Change from baseline, Median: −39.50
  AAS7 Percent change from baseline, Mean (SD): −100.00 (0.00)
  AAS7 Percent change from baseline, Median: −100.00
[22]
  AAS7, Mean (SD): 5.00 (NC)
  AAS7, Median: 5.00
  AAS7 Change from baseline, Mean (SD): −63.00 (NC)
  AAS7 Change from baseline, Median: −63.00
  AAS7 Percent change from baseline, Mean (SD): −92.65 (NC)
  AAS7 Percent change from baseline, Median: −92.65
[23]
  AAS7 Change from baseline, Mean (SD): −16.50 (27.58)
  AAS7 Change from baseline, Median: −16.50
  AAS7 Percent change from baseline, Mean (SD): −41.18 (83.19)
  AAS7 Percent change from baseline, Median: −41.18
